Paper PMC7719162, “Positioning of an unprecedented spiro[5.5]undeca ring system into kinase inhibitor space” (Scientific Reports, 2020)
Where two headings read alike, the source gives them in different places.

Assays:
CDK2/cyclin O = target: T1, CDK2/cyclin O (Homo sapiens, UniProt P24941); conditions: cited from earlier work
T1 construct: purchased Reaction Biology Corp

ROCK2 = target: T2, ROCK2 (Homo sapiens, UniProt O75116); conditions: cited from earlier work
T2 construct: purchased Reaction Biology Corp

STK25/YSK1 = target: T3, STK25/YSK1 (Homo sapiens, UniProt O00506); conditions: cited from earlier work
T3 construct: purchased Reaction Biology Corp
T3 sequence (O00506 whole entry): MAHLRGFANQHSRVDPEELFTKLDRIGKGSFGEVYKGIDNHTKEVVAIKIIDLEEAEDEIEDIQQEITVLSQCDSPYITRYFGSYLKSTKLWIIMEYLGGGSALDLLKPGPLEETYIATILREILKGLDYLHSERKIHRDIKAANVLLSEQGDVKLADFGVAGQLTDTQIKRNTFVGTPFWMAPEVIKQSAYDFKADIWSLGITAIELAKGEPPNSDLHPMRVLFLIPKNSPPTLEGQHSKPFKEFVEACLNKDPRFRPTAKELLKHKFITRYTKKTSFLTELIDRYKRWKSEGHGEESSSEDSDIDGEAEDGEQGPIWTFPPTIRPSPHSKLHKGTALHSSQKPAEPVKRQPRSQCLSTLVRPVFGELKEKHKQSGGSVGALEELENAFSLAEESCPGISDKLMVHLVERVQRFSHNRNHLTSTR

TRKA = target: T4, TRKA (Homo sapiens, UniProt P04629); conditions: cited from earlier work
T4 construct: purchased Reaction Biology Corp

TRKC = target: T5, TRKC (Homo sapiens, UniProt Q16288); conditions: cited from earlier work
T5 construct: purchased Reaction Biology Corp
T5 sequence (Q16288 32-839): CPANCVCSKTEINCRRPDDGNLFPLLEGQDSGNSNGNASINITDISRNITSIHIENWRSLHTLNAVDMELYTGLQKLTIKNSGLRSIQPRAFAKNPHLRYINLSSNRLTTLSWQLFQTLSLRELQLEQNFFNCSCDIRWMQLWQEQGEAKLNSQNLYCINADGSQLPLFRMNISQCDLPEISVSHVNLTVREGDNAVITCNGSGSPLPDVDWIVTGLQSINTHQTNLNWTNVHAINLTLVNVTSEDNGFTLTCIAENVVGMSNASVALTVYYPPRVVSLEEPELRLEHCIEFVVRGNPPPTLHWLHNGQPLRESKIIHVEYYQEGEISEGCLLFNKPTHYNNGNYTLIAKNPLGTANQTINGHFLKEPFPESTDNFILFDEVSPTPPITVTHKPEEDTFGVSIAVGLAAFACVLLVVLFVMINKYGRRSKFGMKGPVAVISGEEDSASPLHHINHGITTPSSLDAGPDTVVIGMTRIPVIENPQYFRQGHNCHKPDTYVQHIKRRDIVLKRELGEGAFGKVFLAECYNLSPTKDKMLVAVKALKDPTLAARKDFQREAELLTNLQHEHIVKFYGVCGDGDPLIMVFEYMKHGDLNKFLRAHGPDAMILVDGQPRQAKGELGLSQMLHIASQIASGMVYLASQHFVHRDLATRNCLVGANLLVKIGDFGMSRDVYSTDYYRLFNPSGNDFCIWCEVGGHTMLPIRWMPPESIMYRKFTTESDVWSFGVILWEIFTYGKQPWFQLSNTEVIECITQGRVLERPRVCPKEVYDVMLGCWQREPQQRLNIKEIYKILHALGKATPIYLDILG

ZIPK/DAPK3 = target: T6, ZIPK/DAPK3 (Homo sapiens, UniProt O43293); conditions: cited from earlier work
T6 construct: purchased Reaction Biology Corp
T6 sequence (O43293 whole entry): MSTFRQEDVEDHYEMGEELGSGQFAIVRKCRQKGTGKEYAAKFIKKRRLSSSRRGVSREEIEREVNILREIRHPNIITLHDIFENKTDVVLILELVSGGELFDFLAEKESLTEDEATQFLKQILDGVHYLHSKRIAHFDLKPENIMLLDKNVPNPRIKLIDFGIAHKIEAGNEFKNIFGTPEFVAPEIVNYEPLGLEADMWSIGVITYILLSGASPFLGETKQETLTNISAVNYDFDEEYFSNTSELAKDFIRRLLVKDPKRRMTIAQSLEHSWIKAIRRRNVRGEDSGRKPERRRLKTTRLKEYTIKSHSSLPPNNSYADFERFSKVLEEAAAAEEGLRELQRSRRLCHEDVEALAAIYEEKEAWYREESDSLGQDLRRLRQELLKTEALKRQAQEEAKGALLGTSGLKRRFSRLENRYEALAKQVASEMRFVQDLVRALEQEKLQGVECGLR

AMPK(A1/B1/G1) [1] = target: T7, AMPK(A1/B1/G1) (Homo sapiens, UniProt P54619+Q13131+Q9Y478); assay: Kinase panel assay (radiolabelled); format: biochemical; conditions: 30 μM compound, ATP 10 μM; duplicates Data 1/Data 2; read-out: % Enzyme Activity (relative to DMSO controls)
T7 construct: purchased Reaction Biology Corp

AMPK(A1/B1/G1) [2] = target: T8, AMPK(A1/B1/G1) (Homo sapiens, UniProt Q13131); assay: Kinase panel assay (radiolabelled); format: biochemical; conditions: 30 μM compound, ATP 10 μM; duplicates Data 1/Data 2
T8 construct: purchased Reaction Biology Corp

AMPK(A2/B2/G2) [3] = target: T9, AMPK(A2/B2/G2) (Homo sapiens, UniProt O43741+P54646+Q9UGJ0); assay: Kinase panel assay (radiolabelled); format: biochemical; conditions: 30 μM compound, ATP 10 μM; duplicates Data 1/Data 2; read-out: % Enzyme Activity (relative to DMSO controls)
T9 construct: purchased Reaction Biology Corp

AMPK(A2/B2/G2) [4] = target: T10, AMPK(A2/B2/G2) (Homo sapiens, UniProt P54646); assay: Kinase panel assay (radiolabelled); format: biochemical; conditions: 30 μM compound, ATP 10 μM; duplicates Data 1/Data 2
T10 construct: purchased Reaction Biology Corp

AMPK(A2/B2/G3) [5] = target: T11, AMPK(A2/B2/G3) (Homo sapiens, UniProt O43741+P54646+Q9UGI9); assay: Kinase panel assay (radiolabelled); format: biochemical; conditions: 30 μM compound, ATP 10 μM; duplicates Data 1/Data 2; read-out: % Enzyme Activity (relative to DMSO controls)
T11 construct: purchased Reaction Biology Corp
T11 sequence (P54646 whole entry): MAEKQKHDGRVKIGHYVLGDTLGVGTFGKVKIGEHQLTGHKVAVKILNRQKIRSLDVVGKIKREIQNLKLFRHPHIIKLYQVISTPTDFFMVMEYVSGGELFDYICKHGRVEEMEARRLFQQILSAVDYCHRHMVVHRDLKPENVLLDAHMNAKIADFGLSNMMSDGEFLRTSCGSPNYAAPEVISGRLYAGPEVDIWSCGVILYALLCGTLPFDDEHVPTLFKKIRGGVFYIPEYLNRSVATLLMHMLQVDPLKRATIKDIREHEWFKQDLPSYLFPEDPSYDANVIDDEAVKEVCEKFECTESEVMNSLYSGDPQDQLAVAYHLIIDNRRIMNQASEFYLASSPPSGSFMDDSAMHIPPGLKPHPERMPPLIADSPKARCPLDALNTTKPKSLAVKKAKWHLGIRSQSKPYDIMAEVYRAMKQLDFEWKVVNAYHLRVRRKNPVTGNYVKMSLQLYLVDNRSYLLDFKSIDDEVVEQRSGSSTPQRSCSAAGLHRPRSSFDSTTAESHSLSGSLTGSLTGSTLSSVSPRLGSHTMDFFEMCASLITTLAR
T11 sequence (O43741 whole entry partner): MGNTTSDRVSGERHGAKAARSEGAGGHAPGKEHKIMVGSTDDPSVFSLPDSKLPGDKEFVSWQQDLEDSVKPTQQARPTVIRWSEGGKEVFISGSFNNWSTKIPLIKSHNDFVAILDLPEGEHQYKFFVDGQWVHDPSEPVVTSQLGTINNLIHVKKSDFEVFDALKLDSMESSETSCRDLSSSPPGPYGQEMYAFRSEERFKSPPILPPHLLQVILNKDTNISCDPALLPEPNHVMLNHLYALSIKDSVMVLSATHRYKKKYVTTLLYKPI
T11 sequence (Q9UGI9 whole entry partner): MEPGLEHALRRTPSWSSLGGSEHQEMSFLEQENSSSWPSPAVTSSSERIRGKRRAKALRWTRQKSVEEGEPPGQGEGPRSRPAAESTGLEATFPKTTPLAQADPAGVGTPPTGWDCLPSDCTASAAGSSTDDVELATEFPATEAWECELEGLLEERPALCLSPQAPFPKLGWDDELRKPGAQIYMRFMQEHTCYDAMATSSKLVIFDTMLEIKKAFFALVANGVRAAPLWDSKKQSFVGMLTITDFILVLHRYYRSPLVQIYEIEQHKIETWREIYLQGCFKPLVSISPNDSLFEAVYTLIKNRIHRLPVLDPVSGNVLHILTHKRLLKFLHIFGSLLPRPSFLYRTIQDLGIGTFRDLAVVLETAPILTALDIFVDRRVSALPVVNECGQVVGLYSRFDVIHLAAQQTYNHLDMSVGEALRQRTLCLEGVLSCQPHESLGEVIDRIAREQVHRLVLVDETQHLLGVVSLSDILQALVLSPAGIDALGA

AMPK(A2/B2/G3) [6] = target: T12, AMPK(A2/B2/G3) (Homo sapiens, UniProt P54646); assay: Kinase panel assay (radiolabelled); format: biochemical; conditions: 30 μM compound, ATP 10 μM; duplicates Data 1/Data 2
T12 construct: purchased Reaction Biology Corp
T12 sequence (P54646 whole entry): as the sequence (P54646 whole entry) above
T12 sequence (O43741 whole entry partner): as the sequence (O43741 whole entry partner) above
T12 sequence (Q9UGI9 whole entry partner): as the sequence (Q9UGI9 whole entry partner) above

ARK5/NUAK1 = target: T13, ARK5/NUAK1 (Homo sapiens, UniProt O60285); assay: Kinase panel assay (radiolabelled); format: biochemical; conditions: ATP 10 μM
T13 construct: purchased Reaction Biology Corp
T13 sequence (O60285 1-661): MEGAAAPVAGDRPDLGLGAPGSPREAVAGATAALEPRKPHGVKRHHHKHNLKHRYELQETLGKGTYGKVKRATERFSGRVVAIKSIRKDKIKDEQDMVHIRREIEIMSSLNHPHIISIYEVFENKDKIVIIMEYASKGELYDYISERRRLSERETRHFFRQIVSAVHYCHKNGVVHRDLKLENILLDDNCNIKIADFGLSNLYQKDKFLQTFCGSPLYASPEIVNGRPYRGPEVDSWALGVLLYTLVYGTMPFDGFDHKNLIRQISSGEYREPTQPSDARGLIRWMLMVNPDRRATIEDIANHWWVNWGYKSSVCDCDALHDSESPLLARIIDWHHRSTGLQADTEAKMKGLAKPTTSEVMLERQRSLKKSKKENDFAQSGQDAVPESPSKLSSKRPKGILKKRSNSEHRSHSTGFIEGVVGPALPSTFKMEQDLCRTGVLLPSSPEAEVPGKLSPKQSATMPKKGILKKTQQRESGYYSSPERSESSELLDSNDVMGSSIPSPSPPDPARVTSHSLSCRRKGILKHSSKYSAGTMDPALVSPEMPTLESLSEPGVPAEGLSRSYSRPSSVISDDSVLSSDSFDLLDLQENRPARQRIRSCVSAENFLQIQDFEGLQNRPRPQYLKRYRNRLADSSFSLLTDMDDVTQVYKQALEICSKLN

Haspin = target: T14, Haspin (Homo sapiens, UniProt Q8TF76); assay: Kinase panel assay (radiolabelled); format: biochemical; conditions: ATP 10 μM
T14 construct: purchased Reaction Biology Corp
T14 sequence (Q8TF76 1-798): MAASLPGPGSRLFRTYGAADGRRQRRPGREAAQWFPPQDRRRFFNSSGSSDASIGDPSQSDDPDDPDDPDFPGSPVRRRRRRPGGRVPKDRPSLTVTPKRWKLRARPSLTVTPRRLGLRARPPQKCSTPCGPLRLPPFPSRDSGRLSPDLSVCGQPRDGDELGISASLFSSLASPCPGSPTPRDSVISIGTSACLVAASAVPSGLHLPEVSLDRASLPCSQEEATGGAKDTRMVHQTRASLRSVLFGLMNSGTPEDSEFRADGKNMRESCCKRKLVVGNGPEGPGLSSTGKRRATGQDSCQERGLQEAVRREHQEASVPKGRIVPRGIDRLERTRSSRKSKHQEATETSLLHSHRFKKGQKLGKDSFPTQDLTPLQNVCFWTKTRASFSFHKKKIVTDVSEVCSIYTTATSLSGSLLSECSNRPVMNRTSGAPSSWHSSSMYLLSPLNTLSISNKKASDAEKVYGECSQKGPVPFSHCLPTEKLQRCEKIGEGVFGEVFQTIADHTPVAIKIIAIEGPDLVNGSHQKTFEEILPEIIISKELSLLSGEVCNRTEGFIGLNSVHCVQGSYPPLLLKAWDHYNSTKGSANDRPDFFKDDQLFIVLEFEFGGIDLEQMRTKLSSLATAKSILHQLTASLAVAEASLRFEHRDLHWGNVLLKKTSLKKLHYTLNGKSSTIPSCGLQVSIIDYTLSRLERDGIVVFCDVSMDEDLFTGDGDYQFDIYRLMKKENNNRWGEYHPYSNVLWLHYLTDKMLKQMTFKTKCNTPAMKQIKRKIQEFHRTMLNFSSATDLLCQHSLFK

TRKA (G667C) = target: T15, TRKA (G667C) (Homo sapiens, UniProt P04629, G667C); assay: Kinase panel assay (radiolabelled); format: biochemical; conditions: 30 μM compound, ATP 10 μM, duplicates Data 1/Data 2
T15 construct: purchased Reaction Biology Corp
T15 sequence (P04629 33-796 G667C): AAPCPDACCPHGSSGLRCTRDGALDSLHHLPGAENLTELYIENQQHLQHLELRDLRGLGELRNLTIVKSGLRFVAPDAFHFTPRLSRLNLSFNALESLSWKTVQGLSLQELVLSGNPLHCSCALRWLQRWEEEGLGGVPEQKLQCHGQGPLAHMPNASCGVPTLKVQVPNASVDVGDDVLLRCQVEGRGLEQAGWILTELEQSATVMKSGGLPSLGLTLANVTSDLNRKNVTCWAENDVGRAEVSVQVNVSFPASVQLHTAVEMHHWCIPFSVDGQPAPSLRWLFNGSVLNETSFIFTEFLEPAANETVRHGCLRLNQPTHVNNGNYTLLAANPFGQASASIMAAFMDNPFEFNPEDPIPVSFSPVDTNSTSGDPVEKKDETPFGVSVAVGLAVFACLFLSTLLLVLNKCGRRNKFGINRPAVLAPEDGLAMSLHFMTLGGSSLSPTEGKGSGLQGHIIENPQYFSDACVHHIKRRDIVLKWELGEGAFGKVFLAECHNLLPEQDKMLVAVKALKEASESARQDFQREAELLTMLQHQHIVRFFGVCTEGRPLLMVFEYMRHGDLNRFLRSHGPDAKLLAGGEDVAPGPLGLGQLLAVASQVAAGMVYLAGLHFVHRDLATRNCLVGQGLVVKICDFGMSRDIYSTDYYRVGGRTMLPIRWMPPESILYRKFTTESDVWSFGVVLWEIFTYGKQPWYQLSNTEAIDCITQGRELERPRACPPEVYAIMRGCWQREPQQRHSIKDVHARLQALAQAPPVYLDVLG

TRKC (G623R/L686M) = target: T16, TRKC (G623R/L686M) (Homo sapiens, UniProt Q16288, G623R/L686M); assay: Kinase panel assay (radiolabelled); format: biochemical; conditions: 30 μM compound, ATP 10 μM, duplicates Data 1/Data 2
T16 construct: purchased Reaction Biology Corp
T16 sequence (Q16288 32-839 G623R/L686M): as the sequence (Q16288 32-839) above, with G592R, L655M counted along it

SPHK1 = target: T17, SPHK1 (Homo sapiens, UniProt Q9NYA1); assay: Kinase panel assay (lipid kinase); format: biochemical; conditions: 30 μM compound, ATP 10 μM, duplicates Data 1/Data 2
T17 construct: purchased Reaction Biology Corp
T17 sequence (Q9NYA1 whole entry): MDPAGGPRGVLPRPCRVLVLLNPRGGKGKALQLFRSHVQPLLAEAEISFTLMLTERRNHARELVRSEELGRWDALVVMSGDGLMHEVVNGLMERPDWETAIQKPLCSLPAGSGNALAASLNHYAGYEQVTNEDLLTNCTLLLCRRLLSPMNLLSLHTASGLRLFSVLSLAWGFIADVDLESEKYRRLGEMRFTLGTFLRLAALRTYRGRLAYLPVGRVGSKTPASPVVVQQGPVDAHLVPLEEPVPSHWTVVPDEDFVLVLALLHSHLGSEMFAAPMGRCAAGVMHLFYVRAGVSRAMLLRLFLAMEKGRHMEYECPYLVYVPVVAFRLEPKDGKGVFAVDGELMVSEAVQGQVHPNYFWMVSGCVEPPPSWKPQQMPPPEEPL

SPHK2 = target: T18, SPHK2 (Homo sapiens, UniProt Q9NRA0); assay: Kinase panel assay (lipid kinase); format: biochemical; conditions: 30 μM compound, ATP 10 μM, duplicates Data 1/Data 2
T18 construct: purchased Reaction Biology Corp
T18 sequence (Q9NRA0 whole entry): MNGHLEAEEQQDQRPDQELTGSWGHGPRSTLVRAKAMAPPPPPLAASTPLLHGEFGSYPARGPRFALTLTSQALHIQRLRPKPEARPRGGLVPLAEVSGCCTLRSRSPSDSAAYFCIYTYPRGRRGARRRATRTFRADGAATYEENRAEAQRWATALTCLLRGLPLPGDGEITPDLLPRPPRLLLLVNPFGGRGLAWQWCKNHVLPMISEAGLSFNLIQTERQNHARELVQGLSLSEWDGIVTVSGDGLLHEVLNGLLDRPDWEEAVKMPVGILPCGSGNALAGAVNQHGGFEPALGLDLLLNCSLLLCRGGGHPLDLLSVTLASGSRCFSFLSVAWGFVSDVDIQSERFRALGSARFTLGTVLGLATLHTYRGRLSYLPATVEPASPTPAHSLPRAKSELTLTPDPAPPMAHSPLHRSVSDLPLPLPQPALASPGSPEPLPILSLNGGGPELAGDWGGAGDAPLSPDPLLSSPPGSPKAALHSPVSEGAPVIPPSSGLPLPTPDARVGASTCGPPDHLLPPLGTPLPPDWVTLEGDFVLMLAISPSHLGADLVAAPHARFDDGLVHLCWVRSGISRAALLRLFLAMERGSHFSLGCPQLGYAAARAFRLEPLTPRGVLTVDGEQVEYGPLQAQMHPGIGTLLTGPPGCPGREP

[7] = 30 μM compound, duplicates Data 1/Data 2
[8] = 30 μM compound, duplicates Data 1/Data 2, read-out: % Enzyme Activity (relative to DMSO controls)
[9] = 30 μM, average ± SD, read-out: % Residual Activity at 30 μM
[10] = read-out: % Enzyme Activity (relative to DMSO controls)

Q: With O=C1C=CC2(C=C1)OCC(Cc1cc(C(F)(F)F)cc(C(F)(F)F)c1)C(=O)N2c1ccccc1 (racemic) [1c] as the compound, how does the “% Residual Activity at 30 μM” value (CDK2/cyclin O) read?
A: Its value is 43.1 ± 1.0%.

Q: What about the “% Residual Activity at 30 μM” value (ROCK2) of the same compound?
A: Its value is 103.9 ± 2.4%.

Q: What about the “% Residual Activity at 30 μM” value (STK25/YSK1) of the same compound?
A: The value was 66.9 ± 0.1%.

Q: And the “% Residual Activity at 30 μM” value (TRKA)?
A: Its value is 98.3 ± 0.1%.

Q: What about the “% Residual Activity at 30 μM” value (TRKC) of the same compound?
A: The value was 97.9 ± 0.2%.

Q: And the “% Residual Activity at 30 μM” value (ZIPK/DAPK3)?
A: The value was 101.8 ± 0.8%.

Q: With O=C1C=CC2(C=C1)OCC(Cc1cn(-c3cccc(Cl)c3)nn1)C(=O)N2c1ccccc1 (centres unmarked) [2d, 3-((1-(3-Chlorophenyl)-1H-1,2,3-triazol-4-yl)methyl)-5-phenyl-1-oxa-5-azaspiro[5.5]undeca-7,10-diene-4,9-dione] as the compound, how does the remaining activity at 30 µM (AMPK(A1/B1/G1) [1]) read?
A: Its remaining activity at 30 µM is 60.9%.

Q: And the “% Enzyme Activity (relative to DMSO controls)” value (AMPK(A1/B1/G1) [2])?
A: Its value is 60.04%.

Q: What about the remaining activity at 30 µM (AMPK(A2/B2/G2) [3]) of the same compound?
A: Its remaining activity at 30 µM is 114%.

Q: What about the “% Enzyme Activity (relative to DMSO controls)” value (AMPK(A2/B2/G2) [4]) of the same compound?
A: The value was 111.36%.

Q: And the remaining activity at 30 µM (AMPK(A2/B2/G3) [5])?
A: Its remaining activity at 30 µM is 95.8%.

Q: What about the “% Enzyme Activity (relative to DMSO controls)” value (AMPK(A2/B2/G3) [6]) of the same compound?
A: The value was 88.96%.

Q: What about the “% Enzyme Activity (relative to DMSO controls)” value (ARK5/NUAK1; [7]) of the same compound?
A: Its value is 84.16%.

Q: What about the remaining activity at 30 µM (ARK5/NUAK1; [8]) of the same compound?
A: The remaining activity at 30 µM was 93.6%.

Q: What about the remaining activity at 30 µM (ARK5/NUAK1; [9]) of the same compound?
A: The remaining activity at 30 µM was 88.9 ± 6.7%.

Q: And the “% Enzyme Activity (relative to DMSO controls)” value (Haspin; [7])?
A: Its value is 70.31%.

Q: And the remaining activity at 30 µM (Haspin; [8])?
A: Its remaining activity at 30 µM is 71.6%.

Q: And the remaining activity at 30 µM (Haspin; [9])?
A: Its remaining activity at 30 µM is 70.9 ± 0.9%.

Q: And the “% Enzyme Activity (relative to DMSO controls)” value (TRKA (G667C))?
A: Its value is 101.95%.

Q: What about the remaining activity at 30 µM (TRKA (G667C); [10]) of the same compound?
A: Its remaining activity at 30 µM is 103%.

Q: What about the “% Enzyme Activity (relative to DMSO controls)” value (TRKC (G623R/L686M)) of the same compound?
A: Its value is 95.31%.

Q: What about the remaining activity at 30 µM (TRKC (G623R/L686M); [10]) of the same compound?
A: Its remaining activity at 30 µM is 96%.

Q: And the “% Enzyme Activity (relative to DMSO controls)” value (SPHK1)?
A: Its value is 77.68%.

Q: What about the remaining activity at 30 µM (SPHK1; [10]) of the same compound?
A: Its remaining activity at 30 µM is 80.5%.

Q: What about the “% Enzyme Activity (relative to DMSO controls)” value (SPHK2) of the same compound?
A: Its value is 90.95%.

Q: What about the remaining activity at 30 µM (SPHK2; [10]) of the same compound?
A: The remaining activity at 30 µM was 91.5%.
